# Values of other authors in patent publication US7772228B2, “Method for treatment of bacterial infections with once or twice-weekly administered rifalazil” (priority 1998, dated 2010).
# System: M. tuberculosis
# Details: depending on the degree of resistance to rifampin; cited from earlier work
smiles,measurement,value
"CO[C@H]1/C=C/O[C@@]2(C)Oc3c(C)c(O)c4c(O)c(c(/C=N/N5CCN(C)CC5)c(O)c4c3C2=O)NC(=O)/C(C)=C\C=C\[C@H](C)[C@H](O)[C@@H](C)[C@@H](O)[C@@H](C)[C@H](OC(C)=O)[C@@H]1C [Rifampin, rifampin, reference compound]","MICs for MTB, range",<0.002 to 4.0 µg/mL
